Where two headings read alike, the source gives them in different places. Marks after values point to notes of the source that are not given here.
Key:
BoNT/A = settings: mouse, in vivo; cited from earlier work
BoNT/A holotoxin [1] = molecular target: BoNT/A holotoxin (Clostridium botulinum, UniProt P0DPI1); experiment: cell-based
BoNT/A holotoxin [2] = molecular target: BoNT/A holotoxin (Clostridium botulinum, UniProt P0DPI0)
healthy mice = settings: mouse, in vivo, po, 160 mg/kg
[3] = in vivo

BoNT/A holotoxin (Clostridium botulinum, UniProt P0DPI1), sequence (P0DPI1 2-448 limits assumed): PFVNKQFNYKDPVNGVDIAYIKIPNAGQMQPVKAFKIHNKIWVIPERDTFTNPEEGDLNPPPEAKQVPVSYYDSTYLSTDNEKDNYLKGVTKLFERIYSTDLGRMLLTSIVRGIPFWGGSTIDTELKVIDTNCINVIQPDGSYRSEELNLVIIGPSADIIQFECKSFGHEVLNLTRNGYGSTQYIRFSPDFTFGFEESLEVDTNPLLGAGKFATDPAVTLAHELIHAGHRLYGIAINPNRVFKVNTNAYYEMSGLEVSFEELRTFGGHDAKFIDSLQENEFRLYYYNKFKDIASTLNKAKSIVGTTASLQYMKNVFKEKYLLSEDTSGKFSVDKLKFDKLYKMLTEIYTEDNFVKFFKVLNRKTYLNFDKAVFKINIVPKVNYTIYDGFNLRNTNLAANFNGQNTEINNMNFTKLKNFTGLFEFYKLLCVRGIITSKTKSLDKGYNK
BoNT/A holotoxin (Clostridium botulinum, UniProt P0DPI0), sequence (P0DPI0 2-1296 limits assumed): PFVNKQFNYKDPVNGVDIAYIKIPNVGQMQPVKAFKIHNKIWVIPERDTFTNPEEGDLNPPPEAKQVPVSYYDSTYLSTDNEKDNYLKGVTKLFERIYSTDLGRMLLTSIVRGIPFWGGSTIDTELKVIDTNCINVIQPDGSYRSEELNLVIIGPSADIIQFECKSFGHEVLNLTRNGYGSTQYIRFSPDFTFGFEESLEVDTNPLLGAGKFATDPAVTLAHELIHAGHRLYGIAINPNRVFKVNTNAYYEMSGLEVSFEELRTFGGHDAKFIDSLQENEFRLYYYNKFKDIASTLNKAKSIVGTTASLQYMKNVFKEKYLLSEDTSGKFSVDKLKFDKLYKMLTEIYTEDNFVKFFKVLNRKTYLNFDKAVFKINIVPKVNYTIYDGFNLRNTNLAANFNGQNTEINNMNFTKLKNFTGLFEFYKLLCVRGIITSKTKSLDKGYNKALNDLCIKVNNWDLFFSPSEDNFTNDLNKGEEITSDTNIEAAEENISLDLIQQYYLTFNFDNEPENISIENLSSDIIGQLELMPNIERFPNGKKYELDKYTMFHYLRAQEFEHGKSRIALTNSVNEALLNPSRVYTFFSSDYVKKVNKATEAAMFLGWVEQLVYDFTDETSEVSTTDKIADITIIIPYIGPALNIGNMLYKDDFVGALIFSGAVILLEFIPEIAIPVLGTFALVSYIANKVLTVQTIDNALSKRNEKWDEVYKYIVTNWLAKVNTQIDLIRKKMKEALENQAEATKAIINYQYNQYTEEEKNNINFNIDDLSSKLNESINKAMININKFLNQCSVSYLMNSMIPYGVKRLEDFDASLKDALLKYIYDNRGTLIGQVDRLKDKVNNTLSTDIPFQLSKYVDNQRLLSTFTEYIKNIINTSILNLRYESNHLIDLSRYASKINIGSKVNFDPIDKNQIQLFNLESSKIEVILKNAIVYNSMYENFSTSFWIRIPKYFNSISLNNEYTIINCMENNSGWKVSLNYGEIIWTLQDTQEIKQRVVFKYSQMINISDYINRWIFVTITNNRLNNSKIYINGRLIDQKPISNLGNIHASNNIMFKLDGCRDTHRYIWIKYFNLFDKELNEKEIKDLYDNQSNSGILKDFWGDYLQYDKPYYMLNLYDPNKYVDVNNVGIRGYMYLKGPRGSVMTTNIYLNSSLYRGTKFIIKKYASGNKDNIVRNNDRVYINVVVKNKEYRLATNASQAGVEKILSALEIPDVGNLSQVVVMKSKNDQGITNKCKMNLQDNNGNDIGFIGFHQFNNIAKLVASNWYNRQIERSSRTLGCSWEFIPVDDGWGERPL

| SMILES | % of full length SNAP-25, mES-MNs pre intoxication (BoNT/A holotoxin [1]; 10 μM) | % of full length SNAP-25, mES-MNs pre intoxication (BoNT/A holotoxin [1]; 20 μM) | exp LogD (pH 1) | exp LogD (pH 10) | further results |
| --- | --- | --- | --- | --- | --- |
| O=C(CS)Nc1cc(-c2ccc(F)cc2)n[nH]1 [ABS 252, N-(3-(4-fluorophenyl)-1H pyrazol-5 yl)-2-mercaptoacetamide] |  |  |  |  | survival of BoNT intoxicated mice (BoNT/A): effective in extending survival |
| CC(=O)O[C@H]1C[C@H]2[C@@H]([C@H](OC(C)=O)C[C@@H]3C[C@H](NCCCCCCNc4ccnc5cc(Cl)ccc45)CC[C@@]32C)[C@@H]2CC[C@H]([C@H](C)CCCNCCCCCCNc3ccnc4cc(Cl)ccc34)[C@@]12C [Compound 1, reference compound] | 70; 84% | 70; 84% |  |  | IC50 (BoNT/A holotoxin [1]): < 10 µM; % of full length SNAP-25, mES-MNs post intoxication (BoNT/A holotoxin [2]): 36; 20% |
| CC(=O)O[C@H]1C[C@H]2[C@@H]([C@H](OC(C)=O)C[C@@H]3C[C@H](N)CC[C@@]32C)[C@@H]2CC[C@H]([C@H](C)CCCNCCCCNc3ccnc4ccccc34)[C@@]12C [Compound 14] | 28; 67% | 28; 67% | 2.14 (pH=1) |  | IC50 (BoNT/A holotoxin [1]): 10 to 20 µM |
| CC(=O)O[C@H]1C[C@H]2[C@@H]([C@H](OC(C)=O)C[C@@H]3C[C@H](N)CC[C@@]32C)[C@@H]2CC[C@H]([C@H](C)CCCN(C)CCCCNc3ccnc4ccccc34)[C@@]12C [Compound 15] | 70; 69% | 70; 69% | 2.11 (pH=1) |  |  |
| CC(=O)O[C@H]1C[C@H]2[C@@H]([C@H](OC(C)=O)C[C@@H]3C[C@H](N)CC[C@@]32C)[C@@H]2CC[C@H]([C@H](C)CCCNCCCC(C)Nc3ccnc4ccccc34)[C@@]12C (stereo partly drawn) [Compound 17] | 67; 69% | 67; 69% | 2.28 (pH=1) |  |  |
| CC(=O)O[C@H]1C[C@H]2[C@@H]([C@H](OC(C)=O)C[C@@H]3C[C@H](N)CC[C@@]32C)[C@@H]2CC[C@H]([C@H](C)CCCN(C)CCCC(C)Nc3ccnc4ccccc34)[C@@]12C (stereo partly drawn) [Compound 18] |  |  | 2.38 (pH=1) |  | % of full length SNAP-25, mES-MNs pre intoxication (BoNT/A holotoxin [1]): 20; 41% |
| CC(=O)O[C@H]1C[C@H]2[C@@H]([C@H](OC(C)=O)C[C@@H]3C[C@H](N)CC[C@@]32C)[C@@H]2CC[C@H]([C@H](C)CCCNC(C)CCCNc3ccnc4ccccc34)[C@@]12C (stereo partly drawn) [Compound 19] | 86; 87% | 86; 87% | 2.21 (pH=1) |  | Mice alive/Total mice (healthy mice): 3/5 |
| C[C@H](CCCNCCCCNc1ccnc2cc(Cl)ccc12)[C@H]1CC[C@H]2[C@@H]3[C@H](O)C[C@@H]4C[C@H](N)CC[C@]4(C)[C@H]3C[C@H](O)[C@]12C [Compound 24] |  |  | 2.97 (pH=1) |  | IC50 (BoNT/A holotoxin [1]): 8 to 16 µM; % of full length SNAP-25, mES-MNs pre intoxication (BoNT/A holotoxin [1]; 8 μM): 46; 58 ^e %; % of full length SNAP-25, mES-MNs pre intoxication (BoNT/A holotoxin [1]; 16 μM): 46; 58 ^e %; detection as metabolite in mouse samples after oral 16 [3]: None of these metabolites were detected |
| CC(CCCNc1ccnc2ccccc12)NCc1ccc(-c2csc3ccc(F)cc23)cc1 (stereo not drawn) [Compound 34] |  |  |  | 3.85 (pH=10) | % of full length SNAP-25, mES-MNs pre intoxication (BoNT/A holotoxin [1]): 58; 68%; IC50 (BoNT/A holotoxin [1]): 10 to 20 µM; Mice alive/Total mice (healthy mice): 5/5 |
| CC(CCCNCc1ccc(-c2csc3ccc(C#N)cc23)cc1)Nc1ccnc2ccccc12 (stereo not drawn) [Compound 36] | 34; 53% | 34; 53% |  | 3.67 (pH=10) |  |
| CN(CCCCNc1ccnc2ccccc12)Cc1ccc(-c2csc3ccc(F)cc23)cc1 [Compound 37] | 44; 55% | 44; 55% |  | 3.98 (pH=10) |  |
| CC(CCCN(C)Cc1ccc(-c2csc3ccc(C#N)cc23)cc1)Nc1ccnc2ccccc12 (stereo not drawn) [Compound 38] |  |  |  | 3.42 (pH=10) | % of full length SNAP-25, mES-MNs pre intoxication (BoNT/A holotoxin [1]): 59; 64%; IC50 (BoNT/A holotoxin [1]): 10 to 20 µM |
| N#Cc1ccc(-c2ccc(-c3ccc(CNCCCCCCNc4ccnc5ccccc45)cc3)s2)cc1 [Compound 46] | 22; 48% | 22; 48% | 3.08 (pH=1) |  |  |
| N#Cc1ccc(-c2ccc(-c3cccc(CNCCCCCCNc4ccnc5ccccc45)c3)s2)cc1 [Compound 50] | 46; 71% | 46; 71% | 3.08 (pH=1) |  |  |
| CN(CCCNc1ccnc2cc(Cl)ccc12)CC12CC3CC(CC(C3)C1)C2 [Compound 57] | 51; 56% | 51; 56% |  | 3.24 (pH=10) | Mice alive/Total mice (healthy mice): 4/5 |
| CC(CCN(C)CC12CC3CC(CC(C3)C1)C2)Nc1ccnc2cc(Cl)ccc12 (stereo not drawn) [Compound 60] | 63; 72% | 63; 72% |  | 3.47 (pH=10) | IC50 (BoNT/A holotoxin [1]): < 10 µM; protection of SNAP-25, pre-exposure dose-response experiment (BoNT/A holotoxin [1]): 90%; Mice alive/Total mice (healthy mice): 3/5 |
| CN(CCCNc1ccnc2ccccc12)CC12CC3CC(CC(C3)C1)C2 [Compound 68] | 30; 31% | 30; 31% |  |  |  |
| CC(CCNc1ccnc2ccccc12)NCCC12CC3CC(CC(C3)C1)C2 (stereo not drawn) [Compound 81] | 23; 24% | 23; 24% |  |  |  |
| CC(CCN(C)CC12CC3CC(CC(C3)C1)C2)Nc1ccnc2ccccc12 (stereo not drawn) [Compound 85] |  |  |  |  | % of full length SNAP-25, mES-MNs pre intoxication (BoNT/A holotoxin [1]): 47; 46% |
| N#Cc1ccc2scc(-c3ccc(CNCCCCNc4ccnc5ccccc45)cc3)c2c1 [Compound 86] | 21; 26% | 21; 26% |  | 3.67 (pH=10) |  |
| N#Cc1ccc2scc(-c3ccc(CNCCCCCCNc4ccnc5ccccc45)cc3)c2c1 [Compound 87] | 36; 43% | 36; 43% |  | 3.85 (pH=10) |  |
| CC(CCCNCc1ccc(-c2csc3ccc(F)cc23)cc1)Nc1ccnc2ccccc12 (stereo not drawn) [Compound 91] |  |  |  | 3.98 (pH=10) | % of full length SNAP-25, mES-MNs pre intoxication (BoNT/A holotoxin [1]): 62; 62% |
| N#Cc1ccc(-c2ccc(-c3ccc(CNCCCCCCCCNc4ccnc5ccccc45)cc3)s2)cc1 [Compound 93] |  |  | 3.42 (pH=1) |  | % of full length SNAP-25, mES-MNs pre intoxication (BoNT/A holotoxin [1]): 31; 70%; Mice alive/Total mice (healthy mice): 5/5 |
| CN(CCCCCCCCNc1ccnc2ccccc12)Cc1ccc(-c2ccc(-c3ccc(C#N)cc3)s2)cc1 [Compound 96] |  |  | 3.33 (pH=1) |  | % of full length SNAP-25, mES-MNs pre intoxication (BoNT/A holotoxin [1]): 54; 60%; IC50 (BoNT/A holotoxin [1]): 5 to 10 µM; Mice alive/Total mice (healthy mice): 5/5 |
| N#Cc1ccc(-c2ccc(-c3ccc(CNCCCCNc4ccnc5ccccc45)cc3)s2)cc1 [Compound 101] | 18; 39% | 18; 39% | 2.93 (pH=1) |  |  |
| CC(CCNc1ccnc2cc(Cl)ccc12)NCC12CC3CC(CC(C3)C1)C2 (stereo not drawn) [Compound 102] | 29; 30% | 29; 30% |  | 3.40 (pH=10) |  |
| CC(CCNCCC12CC3CC(CC(C3)C1)C2)Nc1c(F)cnc2cc(Cl)ccc12 (stereo not drawn) [Compound 103] | 30; 29% | 30; 29% |  | 4.33 (pH=10) |  |
| CC(CCNCC12CC3CC(CC(C3)C1)C2)Nc1c(F)cnc2cc(Cl)ccc12 (stereo not drawn) [Compound 104] | 31; 35% | 31; 35% |  | 3.24 (pH=10) |  |
| CC(CCNCC12CC3CC(CC(C3)C1)C2)Nc1c(F)cnc2ccccc12 (stereo not drawn) [Compound 105] | 24; 23% | 24; 23% |  | 3.09 (pH=10) |  |
| CC(CCNCCC12CC3CC(CC(C3)C1)C2)Nc1c(F)cnc2ccccc12 (stereo not drawn) [Compound 106] | 30; 32% | 30; 32% |  | 4.13 (pH=10) |  |

From PMC5833296 (Journal of medicinal chemistry, 2018)
